Test results from ChEMBL document CHEMBL2346632, “A one-pot domino synthesis and discovery of highly functionalized dihydrobenzo[b]thiophenes as AChE inhibitors” (Bioorg Med Chem Lett, 2013).
pIC50: −log10 of the molar value.

biological target: Acetylcholinesterase (Electrophorus electricus, UniProt O42275); experiment: Inhibition of electric eel AChE after 30 mins by Ellman's method
Sequence (O42275 whole entry): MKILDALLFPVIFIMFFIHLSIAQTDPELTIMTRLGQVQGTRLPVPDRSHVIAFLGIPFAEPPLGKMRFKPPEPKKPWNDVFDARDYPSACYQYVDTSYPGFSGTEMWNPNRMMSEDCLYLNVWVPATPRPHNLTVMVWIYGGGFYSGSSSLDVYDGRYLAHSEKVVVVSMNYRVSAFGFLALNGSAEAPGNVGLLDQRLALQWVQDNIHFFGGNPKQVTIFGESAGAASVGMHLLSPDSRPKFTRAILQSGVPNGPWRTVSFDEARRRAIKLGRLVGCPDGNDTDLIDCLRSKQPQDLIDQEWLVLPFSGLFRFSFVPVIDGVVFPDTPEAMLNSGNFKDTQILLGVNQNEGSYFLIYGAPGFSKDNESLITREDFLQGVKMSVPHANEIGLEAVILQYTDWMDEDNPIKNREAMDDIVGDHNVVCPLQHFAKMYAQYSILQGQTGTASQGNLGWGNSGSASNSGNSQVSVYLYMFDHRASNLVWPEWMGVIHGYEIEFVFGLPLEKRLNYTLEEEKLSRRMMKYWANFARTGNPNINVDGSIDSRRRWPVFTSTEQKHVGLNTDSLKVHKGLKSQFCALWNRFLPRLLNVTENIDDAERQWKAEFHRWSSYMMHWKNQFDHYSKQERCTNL

| Compound | pIC50 |
| --- | --- |
| COc1ccc(-c2c(C#N)c(N)c(C#N)c3c2SC(c2ccc(OC)cc2)C3)cc1 (racemic) | 5.38 |
| N#Cc1c(N)c(C#N)c(-c2ccc(Br)cc2)c2c1CC(c1ccc(Cl)cc1)S2 (racemic) | 4.38 |
| N#Cc1c(N)c(C#N)c(-c2ccc(Br)cc2)c2c1CC(c1ccccc1)S2 (racemic) | 4.42 |
| Cc1ccc(C2Cc3c(C#N)c(N)c(C#N)c(-c4ccc(Br)cc4)c3S2)cc1 (racemic) | 4.62 |
| COc1ccc(-c2c(C#N)c(N)c(C#N)c3c2SC(c2ccc(Cl)cc2)C3)cc1 (racemic) | 4.57 |
| COc1ccc(-c2c(C#N)c(N)c(C#N)c3c2SC(c2ccc(C)cc2)C3)cc1 (racemic) | 4.95 |
| COc1ccc(C2Cc3c(C#N)c(N)c(C#N)c(-c4ccc(C)cc4)c3S2)cc1 (racemic) | 4.94 |
| N#Cc1c(N)c(C#N)c(-c2ccc(F)cc2)c2c1CC(c1ccc(Cl)cc1)S2 (racemic) | 4.41 |
| Cc1ccc(C2Cc3c(C#N)c(N)c(C#N)c(-c4ccc(Cl)cc4)c3S2)cc1 (racemic) | 4.87 |
| N#Cc1c(N)c(C#N)c(-c2ccc(Cl)cc2)c2c1CC(c1ccccc1)S2 (racemic) | 4.54 |
| Cc1ccc(-c2c(C#N)c(N)c(C#N)c3c2SC(c2ccc(C)cc2)C3)cc1 (racemic) | 5.37 |
| CC(C)c1ccc(-c2c(C#N)c(N)c(C#N)c3c2SC(c2ccccc2)C3)cc1 (racemic) | 4.43 |
| N#Cc1c(N)c(C#N)c(-c2ccc(Cl)cc2)c2c1CC(c1ccc(Cl)cc1)S2 (racemic) | 4.47 |
| COc1ccc(-c2c(C#N)c(N)c(C#N)c3c2SC(c2ccccc2)C3)cc1 (racemic) | 5.29 |
| Cc1ccc(C2Cc3c(C#N)c(N)c(C#N)c(-c4ccc(F)cc4)c3S2)cc1 (racemic) | 4.74 |
| CC(C)c1ccc(C2Cc3c(C#N)c(N)c(C#N)c(-c4ccc(F)cc4)c3S2)cc1 (racemic) | 4.35 |
| Cc1ccc(-c2c(C#N)c(N)c(C#N)c3c2SC(c2ccccc2)C3)cc1 (racemic) | 5.02 |
| N#Cc1c(N)c(C#N)c(-c2ccc(F)cc2)c2c1CC(c1ccccc1)S2 (racemic) | 4.49 |
| Cc1ccc(-c2c(C#N)c(N)c(C#N)c3c2SC(c2ccc(Cl)cc2)C3)cc1 (racemic) | 4.76 |
| CC(C)c1ccc(C2Cc3c(C#N)c(N)c(C#N)c(-c4ccc(Cl)cc4)c3S2)cc1 (racemic) | 4.32 |
